According to the NIST ThermoML archive (doi:10.1021/je050006+):
Numbers after ± are expanded uncertainties.

Settings: 101.33 kPa, Liquid

SMILES | mass density (283.15 K) [kg/m3] | speed of sound (283.15 K) [m/s] | mass density (298.15 K) [kg/m3] | speed of sound (298.15 K) [m/s] | mass density (313.15 K) [kg/m3] | speed of sound (313.15 K) [m/s]
CCO [ethanol] | 797.94 ± 0.45 | 1195.2 ± 3.2 | 785.12 ± 0.47 | 1143.3 ± 3.1 | 772.53 ± 0.49 | 1093.8 ± 3
CCCO [propan-1-ol] | 811.48 ± 0.59 | 1257.9 ± 3.5 | 799.66 ± 0.6 | 1206 ± 3.4 | 787.76 ± 0.61 | 1155.1 ± 3.3
C=C1CCC2CC1C2(C)C (stereo not drawn) [β-pinene] | 879.07 ± 0.55 | 1356.8 ± 3.7 | 866.97 ± 0.55 | 1298.7 ± 3.5 | 855.5 ± 0.56 | 1232.8 ± 3.4
